Several values for one entry are separate records, joined by “and”; a condition that tells them apart may be missing. Identical values can stand only once.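 Tested at 5 concentrations; 48 h exposure; 96-well plates; endpoints linearly interpolated, else capped at highest concentration. Abbreviation: GI50, concentration required for 50% inhibition of growth. TGI is the concentration that stops growth completely.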
Assays:
Assay in all cases: NCI-60 cell line screen, 48 h
HS 578T breast = system: HS 578T breast
M14 melanoma = system: M14 melanoma
NCI-H226 lung = system: NCI-H226 lung
RXF 393 renal = system: RXF 393 renal
SR leukemia = system: SR leukemia
T-47D breast = system: T-47D breast
OVCAR-4 ovarian = system: OVCAR-4 ovarian
LOX IMVI melanoma = system: LOX IMVI melanoma
A549 NSCLC = system: A549 NSCLC
MOLT-4 leukemia = system: MOLT-4 leukemia

Structure (SMILES)	GI50 (HS 578T breast)	TGI (HS 578T breast) [µM]	GI50 (M14 melanoma) [µM]	TGI (M14 melanoma) [µM]	GI50 (NCI-H226 lung)	TGI (NCI-H226 lung) [µM]	GI50 (RXF 393 renal)	TGI (RXF 393 renal) [µM]	GI50 (SR leukemia) [µM]	TGI (SR leukemia) [µM]	GI50 (T-47D breast)	TGI (T-47D breast) [µM]	GI50 (OVCAR-4 ovarian)	TGI (OVCAR-4 ovarian) [µM]	GI50 (LOX IMVI melanoma)	TGI (LOX IMVI melanoma) [µM]	GI50 (A549 NSCLC)	TGI (A549 NSCLC) [µM]	GI50 (MOLT-4 leukemia)	TGI (MOLT-4 leukemia) [µM]
COc1cc2c(cc1OC)-c1cc(OC)c(OC)cc1C(CN(C)C)C2 (stereo not drawn)	7.27 µM	> 10	> 10	> 10	> 10 µM	> 10	> 10 µM	> 10	> 10	> 10	> 10 µM	> 10	> 10 µM	> 10	> 10 µM	> 10	> 10 µM	> 10	> 10 µM	> 10
CN1CCN(C(=O)COc2ccc(C34CC5CC(CC(C5)C3)C4)cc2)CC1	15.6 µM	45.6	15.3	30.7	14 µM	37.4	7.44 µM	21.1	4.62	97.4	12.9 µM	39.2	20.8 µM	76.9	12.3 µM	25	13 µM	37.2	13.2 µM	94.9
Br[Se]c1ccccn1	–	40.3	–	31.7	–	36.8	–	31	–	65.8	–	54.1	–	30.9	–	33	–	44.3	–	–
O=C(O)C(Cl)Cl	3090 µM and > 10000 µM	> 10000	> 10000	> 10000	8130 µM and > 10000 µM	> 10000	5140 µM and > 10000 µM	> 10000	> 10000	> 10000	4100 µM and > 10000 µM	> 10000	3300 µM and 8520 µM	> 10000	7490 µM and > 10000 µM	> 10000	7560 µM and > 10000 µM	> 10000	8180 µM and > 8700 µM	> 10000
O=C1NC(=NCc2ccccc2)S/C1=C\c1ccc2ncccc2c1	> 25 µM	> 25	> 25	> 25	> 25 µM	> 25	> 25 µM	> 25	1.05	> 25	> 25 µM	> 25	> 25 µM	> 25	> 25 µM	> 25	24.6 µM	> 25	> 25 µM	> 25
CC(=O)OC1(C)N=NC2(CCCCC2)O1 (stereo not drawn)	–	> 100	–	> 100	–	> 100	–	> 100	–	> 100	–	> 100	–	> 100	–	> 100	–	> 100	–	> 100
Cc1cc(Nc2ccc(C)c(Cl)c2)n2nc(C(F)(F)F)nc2n1	22.6 µM	77.4	28.5	76.5	23.2 µM	> 100	19.4 µM	82.4	18.4	57	17.5 µM	76	25.8 µM	> 100	26.5 µM	73.9	–	–	19.9 µM	94.3
CN(C)c1ccc(/C=N/NC(=S)Nc2ccccc2)cc1	–	> 100	–	> 100	–	> 100	–	> 100	–	> 100	–	> 100	–	> 100	–	> 100	–	> 100	–	> 100
CC(C)[C@@H]1NC(=O)[C@]2(C)CSC(=N2)c2ccnc(c2)CNC(=O)C[C@@H](/C=C/CCS)OC1=O	0.0407 µM	–	0.0957	> 100	0.458 µM	12.4	0.0828 µM	0.562	0.0641	> 100	1.73 µM	6.91	1.41 µM	> 100	0.208 µM	0.588	0.0635 µM	1.33	0.128 µM	> 100
O=C1OCC2=C1C(c1cccc(Br)c1)c1cc3c(cc1N2CCO)OCCO3 (stereo not drawn)	0.0715 µM	> 21.3	0.0421	0.453	0.072 µM	0.738	0.012 µM	0.0361	0.127	31	0.379 µM	> 41.3	0.131 µM	> 50	0.107 µM	9.28	0.131 µM	5.97	0.225 µM	> 42.2
C/C=C/[C@@H]1O[C@@H]2COC(=O)C2=C[C@@H]1O	23.4 µM	58.2	13.7	35.3	17.6 µM	42	15 µM	39.7	9.61	> 100	6.31 µM	24.2	16.1 µM	42.8	17.5 µM	36.1	20.6 µM	40.4	2.2 µM	–
COc1cc(-c2nn(-c3cccc(NC(=O)c4ccccc4)c3)cc2-c2ccncc2)ccc1Cl	0.87 µM	> 40.9	0.565	12.8	3.3 µM	> 100	0.545 µM	> 25.2	0.25	> 100	0.843 µM	> 100	1.11 µM	> 100	0.567 µM	> 100	0.496 µM	> 60.6	0.701 µM	> 100
COc1cc(-c2nc3sccn3c2-c2ccnc(NCCNS(=O)(=O)c3ccc(F)cc3)n2)ccc1F	1.88 µM	> 100	0.499	> 100	1.95 µM	6.05	0.75 µM	8.2	2.51	> 100	0.634 µM	35.9	3.4 µM	> 100	1.65 µM	> 100	2.44 µM	> 100	–	–

Reference: PubChem BioAssay (NCI)
